{"source": "patent US10023565B2", "about": "“N,N′ substituted piperidinamine compounds, and preparation method and usage thereof” (Institute of Pharmacology and Toxicology Academy of …, priority 2013, dated 2018)", "assay": "Mice pharmacokinetic evaluation (LC-MS/MS of plasma)", "assay_type": "in vivo, ICR mice", "settings": "for Cmax: read-out: Cmax; for Plasma concentration of active compound: listed as Mol", "procedure": "Mice pharmacokinetic evaluation of the compound of Example 36 according to the method described below\nICR mice, SPS grade, male, weighed […], license number SCXK (Beijing) 2012-0001, purchased from Beijing Vital River Laboratory Animal Technology Co. Ltd.\nChromatographic conditions: Analytical column: Capcell Pak MG, 5 μm particle size, 50×2.0 mm I.D. (Shiseido Co.), connected with C18 guard column, 4×3.0 mm I.D. (PhenomenexCo., USA), column temperature 25° C., mobile phase: acetonitrile −2 mM ammonium acetate (65:35, v/v), flow rate 0.3 ml/min, internal standard: loratadine.\nMS conditions: Electrospray ionization source (Turbo Ionspray source), positive ion mode detection; spray voltage 4500 V; source temperature 400° C.; nebulizer gas (NEB) 8; curtain gas (CUR) 10; collision gas (CAD) 4; scanning mode: multiple reaction monitoring (MRM), ion reactions for quantitative analysis: m/z 354.4→m/z 154.1 (Mol, CE 43 V) and m/z 383→m/z 337 (internal standard loratadine, CE 32 V), scanning time 150 msec.\nTo 50 μl of plasma, were added 10 μl of internal standard solution (125 ng/ml aqueous solution of loratadine), and 500 μl of n-hexane-dichloromethane-isopropanol (100:50:5, v/v/v); they were uniformly mixed, followed by vortexing for 3 min, and centrifuging for 10 min (3000 rpm); the supernatant was taken and blow dried with air streamat 40° C.; the residue was dissolved with 150 μl […], and subjected to LC-MS/MS analysis.\n30 ICR male mice were randomly divided into […], five mices each group, including Mol 10 mg/kg oral group and 1.0 mg/kg tail intravenous injection group. For oral group, before administration, the animals were fasted for 12 h, with free access to water; 0.08, 0.25, 0.5, 1, 2, 4, 6, 8, 12 and 24 h after intragastrical administration, 0.1 ml of orbital venous sinus blood was taken, placed in anticoagulation tube containing heparin sodium, and subjected to 3000 g centrifugation for 15 min; and then, the plasma was taken and stored in a −20° C. refrigerator. […]\nPharmacokinetic parameters were calculated using non-compartment model of Winnonlin® software (Version 5.2.1, USA). Cmax is the measured maximum plasma concentration, Tmax is time to peak plasma concentration after oral administration, t1/2 is drug terminal elimination halflife, MRT is average residence time of drug in vivo, the area AUC0-t under plasma concentration—time curve is calculated by trapezoidal method.\nBioavailability is calculated as follows: […]\nAUC: Area (h*ng/ml) under the curve; D: dose (mg/kg)", "key": {"[1]": {"settings": "male, ICR, mouse, plasma, po, 10 mg/kg, Po 10 mg/kg, Mean ± SD, n = 3"}, "[2]": {"settings": "male, ICR, mouse, plasma, po, 10 mg/kg, Po 10 mg/kg, individual mice 1-3"}, "[3]": {"settings": "male, ICR, mouse, plasma, po, 10 mg/kg, oral 10 mg/kg, Mean, read-out: Plasma concentration of active compound"}, "[4]": {"settings": "male, ICR, mouse, plasma, po, 10 mg/kg, oral 10 mg/kg, individual mice 1-3, read-out: Plasma concentration of active compound"}}, "note": "Values joined by “and” are separate entries in the source; they are usually repeats but may differ in a detail not shown here. Identical values can stand only once. Like-named read-outs stand apart in the source and are kept apart here.", "data": [{"smiles": "CSc1nccc(N2CCC(N(C)Cc3ccc(C#N)cc3)CC2)n1", "note": "[Example 36, N-methyl-N-(4-cyanobenzyl)-N-[1-(2-methylthiopyrimidin-4-yl)piperidin-4-yl]amine]", "values": [{"measurement": "concentration at 0.17 h", "setting": "male, ICR, mouse, plasma, iv, 1 mg/kg, intravenous 1.0 mg/kg, Mean, read-out: Plasma concentration of active compound", "result": 62.8, "unit": "ng/mL"}, {"measurement": "concentration at 0.17 h", "setting": "male, ICR, mouse, plasma, iv, 1 mg/kg, intravenous 1.0 mg/kg, individual mice 4-6, read-out: Plasma concentration of active compound", "result": 79.6, "unit": "ng/mL"}, {"measurement": "concentration at 0.5 h", "setting": "male, ICR, mouse, plasma, iv, 1 mg/kg, intravenous 1.0 mg/kg, 0.5 h, Mean, read-out: Plasma concentration of active compound", "result": 31.5, "unit": "ng/mL"}, {"measurement": "concentration at 1 h", "setting": "male, ICR, mouse, plasma, iv, 1 mg/kg, intravenous 1.0 mg/kg, 1.0 h, Mean, read-out: Plasma concentration of active compound", "result": 7.02, "unit": "ng/mL"}, {"measurement": "concentration at 2 h", "setting": "male, ICR, mouse, plasma, iv, 1 mg/kg, intravenous 1.0 mg/kg, 2.0 h, Mean, read-out: Plasma concentration of active compound", "result": 1.77, "unit": "ng/mL"}, {"measurement": "concentration at 4 h", "setting": "male, ICR, mouse, plasma, iv, 1 mg/kg, intravenous 1.0 mg/kg, 4.0 h, Mean, read-out: Plasma concentration of active compound", "result": 2.26, "unit": "ng/mL"}, {"measurement": "concentration at 4 h", "setting": "male, ICR, mouse, plasma, iv, 1 mg/kg, intravenous 1.0 mg/kg, 4.0 h, individual mice 4-6, read-out: Plasma concentration of active compound", "result": 2.3, "unit": "ng/mL"}, {"measurement": "concentration at 6 h", "setting": "male, ICR, mouse, plasma, iv, 1 mg/kg, intravenous 1.0 mg/kg, 6.0 h, Mean, read-out: Plasma concentration of active compound", "result": 7.53, "unit": "ng/mL"}, {"measurement": "concentration at 6 h", "setting": "male, ICR, mouse, plasma, iv, 1 mg/kg, intravenous 1.0 mg/kg, 6.0 h, individual mice 4-6, read-out: Plasma concentration of active compound", "result": 7.53, "unit": "ng/mL"}, {"measurement": "concentration at 8 h", "setting": "male, ICR, mouse, plasma, iv, 1 mg/kg, intravenous 1.0 mg/kg, 8.0 h, Mean, read-out: Plasma concentration of active compound", "result": 0.84, "unit": "ng/mL"}, {"measurement": "concentration at 8 h", "setting": "male, ICR, mouse, plasma, iv, 1 mg/kg, intravenous 1.0 mg/kg, 8.0 h, individual mice 4-6, read-out: Plasma concentration of active compound", "result": 0.7, "unit": "ng/mL"}, {"measurement": "bioavailability", "setting": "male, ICR, mouse, plasma, oral, 10 mg/kg, Po 10 mg/kg vs IV 1.0 mg/kg, Mean ± SD, n = 3, read-out: F (absolute bioavailability)", "result": "55.5 ± 10.9", "unit": "%"}, {"measurement": "AUC(0-inf)", "setting": "[1]", "result": "280 ± 55.8", "unit": "ng·h/mL"}, {"measurement": "AUC(0-t)", "setting": "[1]", "result": "275 ± 54.1", "unit": "ng·h/mL"}, {"measurement": "half-life", "setting": "[1]", "result": "2.72 ± 2.47", "unit": "h"}, {"measurement": "Cmax", "setting": "[1]", "result": "260 ± 63.2", "unit": "ng/mL"}, {"measurement": "MRT last", "setting": "male, ICR, mouse, plasma, po, 10 mg/kg, Po 10 mg/kg, Mean ± SD, n = 3, read-out: MRT0-t", "result": "1.58 ± 0.86", "unit": "h"}, {"measurement": "MRT inf", "setting": "male, ICR, mouse, plasma, po, 10 mg/kg, Po 10 mg/kg, Mean ± SD, n = 3, read-out: MRT0-∞", "result": "1.95 ± 1.42", "unit": "h"}, {"measurement": "Tmax", "setting": "male, ICR, mouse, plasma, po, 10 mg/kg, Po 10 mg/kg, Mean ± SD, n = 3, read-out: Tmax", "result": "0.44 ± 0.49", "unit": "h"}, {"measurement": "AUC(0-inf)", "setting": "[2]", "result": 216, "unit": "ng·h/mL"}, {"measurement": "AUC(0-t)", "setting": "[2]", "result": 214, "unit": "ng·h/mL"}, {"measurement": "Cmax", "setting": "[2]", "result": 197, "unit": "ng/mL"}, {"measurement": "concentration at 0.08 h", "setting": "male, ICR, mouse, plasma, po, 10 mg/kg, oral 10 mg/kg, 0.08 h, Mean, read-out: Plasma concentration of active compound", "result": 141, "unit": "ng/mL"}, {"measurement": "concentration at 0.25 h", "setting": "male, ICR, mouse, plasma, po, 10 mg/kg, oral 10 mg/kg, 0.25 h, Mean, read-out: Plasma concentration of active compound", "result": 203, "unit": "ng/mL"}, {"measurement": "concentration at 0.5 h", "setting": "male, ICR, mouse, plasma, po, 10 mg/kg, oral 10 mg/kg, 0.50 h, Mean, read-out: Plasma concentration of active compound", "result": 97.5, "unit": "ng/mL"}, {"measurement": "concentration at 1 h", "setting": "male, ICR, mouse, plasma, po, 10 mg/kg, oral 10 mg/kg, 1.0 h, Mean, read-out: Plasma concentration of active compound", "result": 147, "unit": "ng/mL"}, {"measurement": "concentration at 2 h", "setting": "male, ICR, mouse, plasma, po, 10 mg/kg, oral 10 mg/kg, 2.0 h, Mean, read-out: Plasma concentration of active compound", "result": 23.5, "unit": "ng/mL"}, {"measurement": "concentration at 4 h", "setting": "male, ICR, mouse, plasma, po, 10 mg/kg, oral 10 mg/kg, 4.0 h, Mean, read-out: Plasma concentration of active compound", "result": 7.75, "unit": "ng/mL"}, {"measurement": "concentration at 6 h", "setting": "male, ICR, mouse, plasma, po, 10 mg/kg, oral 10 mg/kg, 6.0 h, Mean, read-out: Plasma concentration of active compound", "result": 7.36, "unit": "ng/mL"}, {"measurement": "concentration at 8 h", "setting": "male, ICR, mouse, plasma, po, 10 mg/kg, oral 10 mg/kg, 8.0 h, Mean, read-out: Plasma concentration of active compound", "result": 2.71, "unit": "ng/mL"}, {"measurement": "concentration at 12 h", "setting": "[3]", "result": 0.5, "unit": "ng/mL"}, {"measurement": "concentration at 12 h", "setting": "[4]", "result": 0.5, "unit": "ng/mL"}, {"measurement": "concentration at 24 h", "setting": "[3]", "result": 1.32, "unit": "ng/mL"}, {"measurement": "concentration at 24 h", "setting": "[4]", "result": 1.32, "unit": "ng/mL"}, {"measurement": "Plasma concentration of active compound", "setting": "oral 10 mg/kg, 0.08 h, individual mice 1-3, 10 mg/kg", "result": "196.99 ng/mL and 152.22 ng/mL and 72.70 ng/mL"}, {"measurement": "Plasma concentration of active compound", "setting": "oral 10 mg/kg, 0.25 h, individual mice 1-3, 10 mg/kg", "result": "126.87 ng/mL and 158.18 ng/mL and 323.37 ng/mL"}, {"measurement": "Plasma concentration of active compound", "setting": "oral 10 mg/kg, 0.50 h, individual mice 1-3, 10 mg/kg", "result": "41.24 ng/mL and 119.50 ng/mL and 131.86 ng/mL"}, {"measurement": "Plasma concentration of active compound", "setting": "oral 10 mg/kg, 1.0 h, individual mice 1-3, 10 mg/kg", "result": "107.54 ng/mL and 260.48 ng/mL and 71.98 ng/mL"}, {"measurement": "Plasma concentration of active compound", "setting": "oral 10 mg/kg, 2.0 h, individual mice 1-3, 10 mg/kg", "result": "33.99 ng/mL and 12.86 ng/mL and 23.69 ng/mL"}, {"measurement": "Plasma concentration of active compound", "setting": "oral 10 mg/kg, 4.0 h, individual mice 1-3, 10 mg/kg", "result": "7.47 ng/mL and 1.17 ng/mL and 14.60 ng/mL"}, {"measurement": "Plasma concentration of active compound", "setting": "oral 10 mg/kg, 6.0 h, individual mice 1-3, 10 mg/kg", "result": "1.28 ng/mL and 13.43 ng/mL"}, {"measurement": "Plasma concentration of active compound", "setting": "oral 10 mg/kg, 8.0 h, individual mice 1-3, 10 mg/kg", "result": "0.54 ng/mL and 4.88 ng/mL"}]}]}
